Values joined by “and” are separate entries in the source; they are usually repeats but may differ in a detail not shown here. Equal values may be shown once.
System: STAT3 Phospho-Tyr705
Assay: NanoBiT pSTAT3 cell-based immunoassay in A431 cells
Parameters: species or system human
Settings: for P-STAT3 (% compared to no inhibitor) Average / P-STAT3 (% compared to no inhibitor): IL-6 10 ng/ml; for P-STAT3 (% compared to no inhibitor): replicate
Experimental: Prior to NanoBiT Cell-Based Immunoassay, 50,000 cells were seeded in 160 µl of complete growth media per well of a 96-well plate and incubated overnight. […] If necessary, the cell culture media were replaced with serum-free media after the cells were stably adherent on the plate and incubated overnight. To treat cells with activators or inhibitors, medium was changed to 30 µl of medium containing inhibitors. If activation of a specific pathway is needed, the cells were stimulated with 10 µl of medium containing activators. To lyse the cells, 10 µl of lysis buffer containing 0.1% digitonin diluted in 1X immunoassay buffer with protease and phosphatase inhibitors was added and the plates were mixed vigorously for 20 min. Then, 50 µl of an antibody mix containing two primary antibodies against the target protein and NanoBiT detecting antibodies (0.3 µl each per well), diluted in 1X immunoassay buffer was added to the lysates. The plates were incubated at 23 °C for 90 min, followed by the addition of 25 µl of Nano-Glo® reagent consisting of Nano-Glo® Luciferase Assay Substrate mixed with 1X immunoassay buffer. Luminescence was measured using a plate-reading luminometer.
Single dose or dose response inhibitor treatments were performed prior to activation of the pathways as follows. For IκBα, the cells were treated in 30 µl medium with IKK16 or MG132 for 60 min before the addition of 10 µl of DMEM containing appropriate concentration of TNFα. To measure phosphorylation of AKT or STAT3, the corresponding NanoBiT immunoassays were developed with MCF-7 or A431 cells, respectively, according the same scheme used to develop the IκBα assay using the primary antibodies for AKT and STAT3 described in the reagents section. […] Treatment with LY294002 was performed in 30 µl medium and cells were incubated for 60 min before the addition of 1 µM Insulin. To measure STAT3 phosphorylation, A431 cells were incubated overnight in DMEM medium without serum. […] After addition of the stimulators, the cells were incubated for additional times as follows. IκBα phosphorylation and degradation analyses required both time courses and single time points as described in figures. […] The NanoBiT immunoassay protocol was followed as described above.
All 96-well assay plates were read using a GloMax® 96 Microplate Luminometer from Promega. The instrument was set to 0.5 s integration time. In order to obtain net change of signal, the reagent background values (signal from the well containing all reagent except primary antibodies) were subtracted from the sample values. To plot and analyze the data, Microsoft Excel and GraphPad Prism® Software were used. IC50 values were determined by using a nonlinear regression fit to a sigmoidal dose response (variable slope).

Q: `N#CC[C@H](C1CCCC1)n1cc(-c2ncnc3[nH]ccc23)cn1` [Ruxolitinib] was tested. Which “IL-6-induced increase in STAT3 phosphorylation” value (A431 cells, 1 µM 1 h, IL-6 10 ng per ml 30 min) did it give?
A: suppressed

Q: And the “P-STAT3 (% compared to no inhibitor) Average” value (inhibitor 0.0190735 nM)?
A: 95.1%

Q: What about the “P-STAT3 (% compared to no inhibitor) Average” value (inhibitor 0.038147 nM) of the same compound?
A: 97.5%

Q: And the “P-STAT3 (% compared to no inhibitor) Average” value (inhibitor 0.0762939 nM)?
A: 97.0%

Q: What about the “P-STAT3 (% compared to no inhibitor) Average” value (inhibitor 0.152588 nM) of the same compound?
A: 107.8%

Q: And the “P-STAT3 (% compared to no inhibitor) Average” value (inhibitor 0.305176 nM)?
A: 102.4%

Q: And the “P-STAT3 (% compared to no inhibitor) Average” value (inhibitor 0.610352 nM)?
A: 97.6%

Q: And the “P-STAT3 (% compared to no inhibitor) Average” value (inhibitor 1.2207 nM)?
A: 97.9%

Q: And the “P-STAT3 (% compared to no inhibitor) Average” value (inhibitor 2.44141 nM)?
A: 96.4%

Q: And the “P-STAT3 (% compared to no inhibitor) Average” value (inhibitor 4.88281 nM)?
A: 89.5%

Q: And the “P-STAT3 (% compared to no inhibitor) Average” value (inhibitor 9.76562 nM)?
A: 75.7%

Q: And the “P-STAT3 (% compared to no inhibitor) Average” value (inhibitor 19.5312 nM)?
A: 80.7%

Q: And the “P-STAT3 (% compared to no inhibitor) Average” value (inhibitor 39.0625 nM)?
A: 62.0%

Q: What about the “P-STAT3 (% compared to no inhibitor) Average” value (inhibitor 78.125 nM) of the same compound?
A: 39.8%

Q: What about the “P-STAT3 (% compared to no inhibitor) Average” value (inhibitor 156.25 nM) of the same compound?
A: 26.0%

Q: What about the “P-STAT3 (% compared to no inhibitor) Average” value (inhibitor 312.5 nM) of the same compound?
A: 16.9%

Q: What about the “P-STAT3 (% compared to no inhibitor) Average” value (inhibitor 625 nM) of the same compound?
A: 16.7%

Q: And the “P-STAT3 (% compared to no inhibitor) Average” value (inhibitor 2500 nM)?
A: 13.8%

Q: What about the “P-STAT3 (% compared to no inhibitor) Average” value (inhibitor 5000 nM) of the same compound?
A: 15.3%

Q: And the “P-STAT3 (% compared to no inhibitor) Average” value (inhibitor 10000 nM)?
A: 10.3%

Q: What about the “P-STAT3 (% compared to no inhibitor) Average” value (inhibitor […]) of the same compound?
A: 12.9%

Q: And the “P-STAT3 (% compared to no inhibitor)” value (inhibitor 0.0190735 nM)?
A: 96.2% and 96.8% and 92.2%

Q: And the “P-STAT3 (% compared to no inhibitor)” value (inhibitor 0.038147 nM)?
A: 95.4% and 106.7% and 90.5%

Q: What about the “P-STAT3 (% compared to no inhibitor)” value (inhibitor 0.0762939 nM) of the same compound?
A: 96.2% and 100.5% and 94.3%

Q: And the “P-STAT3 (% compared to no inhibitor)” value (inhibitor 0.152588 nM)?
A: 95.8% and 119.8% and 107.8%

Q: What about the “P-STAT3 (% compared to no inhibitor)” value (inhibitor 0.305176 nM) of the same compound?
A: 98.2% and 103.8% and 105.3%

Q: What about the “P-STAT3 (% compared to no inhibitor)” value (inhibitor 0.610352 nM) of the same compound?
A: 90.4% and 95.8% and 106.7%

Q: And the “P-STAT3 (% compared to no inhibitor)” value (inhibitor 1.2207 nM)?
A: 97.3% and 105.4% and 90.9%

Q: What about the “P-STAT3 (% compared to no inhibitor)” value (inhibitor 2.44141 nM) of the same compound?
A: 104.8% and 99.5% and 84.9%

Q: And the “P-STAT3 (% compared to no inhibitor)” value (inhibitor 4.88281 nM)?
A: 81.2% and 88.5% and 98.7%

Q: And the “P-STAT3 (% compared to no inhibitor)” value (inhibitor 9.76562 nM)?
A: 52.6% and 91.9% and 82.5%

Q: What about the “P-STAT3 (% compared to no inhibitor)” value (inhibitor 19.5312 nM) of the same compound?
A: 89.5% and 78.3% and 74.3%

Q: And the “P-STAT3 (% compared to no inhibitor)” value (inhibitor 39.0625 nM)?
A: 59.3% and 71.3% and 55.5%

Q: What about the “P-STAT3 (% compared to no inhibitor)” value (inhibitor 78.125 nM) of the same compound?
A: 39.9% and 42.8% and 36.6%

Q: What about the “P-STAT3 (% compared to no inhibitor)” value (inhibitor 156.25 nM) of the same compound?
A: 30.4% and 24.5% and 23.1%

Q: What about the “P-STAT3 (% compared to no inhibitor)” value (inhibitor 312.5 nM) of the same compound?
A: 16.4% and 18.5% and 15.8%

Q: What about the “P-STAT3 (% compared to no inhibitor)” value (inhibitor 625 nM) of the same compound?
A: 19.9% and 15.7% and 14.5%

Q: And the “P-STAT3 (% compared to no inhibitor)” value (inhibitor 2500 nM)?
A: 12.6% and 13.9% and 14.8%

Q: What about the “P-STAT3 (% compared to no inhibitor)” value (inhibitor 5000 nM) of the same compound?
A: 13.4% and 17.3% and 15.2%

Q: What about the “P-STAT3 (% compared to no inhibitor)” value (inhibitor 10000 nM) of the same compound?
A: 6.2% and 9.4% and 15.3%

Reference: publication PMC6941952, “A homogeneous bioluminescent immunoassay to probe cellular signaling pathway regulation” (Communications Biology, 2020)
